Laboratory results published in ChEMBL document CHEMBL4043087 (J Med Chem, 2017).

Legend:
[1] = tested on: Mus musculus; experiment: Anesthetic activity in iv dosed ICR mouse assessed as onset time for loss of righting reflex administered 7 to 8 doses at 10 secs for each dose; type: functional
[2] = tested on: Mus musculus; experiment: Anesthetic activity in iv dosed ICR mouse assessed as anesthetic duration time administered 7 to 8 doses at 10 secs for each dose; type: functional
[3] = tested on: Mus musculus; experiment: Anesthetic activity in iv dosed ICR mouse assessed as recovery time of righting reflex by measuring the ability to grip and climb a steel frame and ambulated normally administered 7 to 8 doses at 10 secs for each dose; type: functional
[4] = tested on: Mus musculus; experiment: Anesthetic activity in iv dosed ICR mouse assessed as loss of righting reflex administered 7 to 8 doses at 10 secs for each dose; type: functional
[5] = Toxicity in iv dosed ICR mouse administered 7 to 8 doses at 10 secs for each dose; type: organism-based; settings: in vivo
[6] = tested on: Mus musculus; experiment: Anesthetic activity in iv dosed ICR mouse assessed as dose required to produce 10 min of anesthesia administered 7 to 8 doses at 10 secs for each dose; type: functional
[7] = tested on: Mus musculus; experiment: Anesthetic activity in mouse model assessed as loss of righting reflex; type: functional
[8] = Therapeutic index, ratio of LD50 for toxicity in mouse to ED50 for anesthetic effect in mouse
[9] = species on record: Rattus norvegicus; experiment: Displacement of [35S]TBPS from GABAA receptor in Wistar rat cerebral cortex membranes after 3 hrs by scintillation counting method; settings: Membrane
[10] = species on record: Rattus norvegicus; experiment: Displacement of [35S]TBPS from GABAA receptor in Wistar rat cerebral cortex membranes at 10 uM after 3 hrs by scintillation counting method; settings: Membrane
[11] = species on record: Rattus norvegicus; experiment: Displacement of [35S]TBPS from GABAA receptor in Wistar rat cerebral cortex membranes at 1 uM after 3 hrs by scintillation counting method; settings: Membrane
[12] = tested on: Rattus norvegicus; experiment: Half life in Sprague-Dawley rat at 1 mg/kg, iv by LC-MS/MS analysis; type: ADME, organism-based; settings: in vivo
[13] = Volume of distribution at steady state in Sprague-Dawley rat at 1 mg/kg, iv by LC-MS/MS analysis; type: ADME, organism-based; settings: in vivo, read-out: Vdss
[14] = Clearance in Sprague-Dawley rat at 1 mg/kg, iv by LC-MS/MS analysis; type: ADME, organism-based; settings: in vivo
[15] = tested on: Rattus norvegicus; experiment: Cmax in Sprague-Dawley rat at 1 mg/kg, iv by LC-MS/MS analysis; type: ADME, organism-based; set-up: dose 1 mg/kg, route intravenous; settings: in vivo
[16] = species on record: Rattus norvegicus; settings: in vivo, iv, 1 mg/kg
[17] = Toxicity in mouse; type: organism-based; settings: in vivo

Row | Compound | Time [1] [s] | Time [2] [s] | Time [3] [s] | ED50 [4] [mg/kg] | LD50 at 10 s [5] [mg/kg] | Activity [6] [mg/kg] | ED50 [7] [mg/kg] | Ratio LD50/ED50 [8] | inhibition [9] | inhibition [10] [%] | inhibition [11] [%] | t1/2 [12] [min] | Vd [13] [L/kg] | clearance [14] [mL/min/kg] | Cmax [15] [ng/mL] | AUCt [16] [ng·h/mL] | LD50 [17] [mg/kg]
1 | CC(C)c1cccc(C(C)C2CCCC2)c1O (racemic) | 5 | 737.33 | 441.6 | 19.9 | 115 | 40 |  |  |  |  |  |  |  |  |  |  | 
2 | C[C@H](c1cccc([C@@H](C)C2CC2)c1OCOP(=O)([O-])[O-])C1CC1.[Na+].[Na+] |  |  |  |  |  |  | 94.7 | 2.9 |  |  |  |  |  |  |  |  | 
3 | CC(c1cccc(C2(C)CC2)c1O)C1CC1 (racemic) | 9.5 | 365.75 | 306.13 |  | 40 | 45 |  |  |  |  |  |  |  |  |  |  | 
4 | CC[C@@H](C)c1cccc([C@H](C)CC)c1O | 18 | 459.83 | 39.83 | 2.69 | 23.8 | 10 |  |  | Dose-dependent effect | 29 | 0 |  |  |  |  |  | 
5 | CC(c1cccc(C(C)C2CC2)c1O)C1CC1 (racemic) | <10 | 563.63 | 233.83 |  | > 15 |  |  |  | Dose-dependent effect | 91 | 13 |  |  |  |  |  | 
6 | C[C@H](c1cccc([C@@H](C)C2CC2)c1O)C1CC1 | 7 | 567.33 | 150.8 | 19.5 | 149 | 40 |  |  | Dose-dependent effect | 35 |  |  |  |  |  |  | 
7 | CC(c1ccccc1O)C1CC1 (racemic) | <10 | 598 | 329.6 | 14 | 64.8 | 30 |  |  |  |  |  |  |  |  |  |  | 
8 | C[C@H](c1cccc([C@H](C)C2CC2)c1OCOP(=O)([O-])[O-])C1CC1.[Na+].[Na+] |  |  |  |  |  |  | 35.8 | 4 |  |  |  |  |  |  |  |  | 
9 | CC[C@@H](C)c1cccc([C@H](C)C2CC2)c1O | <10 | 471.88 | 391.29 | 2 | 14.3 | 7.5 |  |  | Dose-dependent effect | 87 | 23 | 22 | 3.23 | 208 | 575 | 78.1 | 
10 | CC(C)c1cccc(C(C)C2CC2)c1O (racemic) | <10 | 518.5 | 78 |  |  | 10 |  |  | Dose-dependent effect | 3 |  |  |  |  |  |  | 
11 | CCC(C)c1cccc(C(C)C2CC2)c1O (racemic) | <10 | 418.14 | 130.71 |  |  | 20 |  |  | Dose-dependent effect | 74 | -3 |  |  |  |  |  | 
12 | CCC(c1cccc(C(C)C2CC2)c1O)C1CC1 (racemic) | 7.5 | 670.13 | 205.8 | 9 | 74.7 | 20 |  |  |  |  |  |  |  |  |  |  | 
13 | CC(c1cccc(C(C2CC2)C2CC2)c1O)C1CC1 (racemic) | <10 | 761.33 | 326.5 | 9.8 | 98.2 | 20 |  |  |  |  |  |  |  |  |  |  | 
14 | CC(C)c1cccc(C(C)C)c1O [PROPOFOL] | <10 | 303.2 | 50 |  |  | 25 |  |  | Dose-dependent effect | 10 |  |  | 5.23 |  | 384 | 76.9 | 
15 | CC[C@H](C)c1cccc([C@H](C)C2CC2)c1O | <10 | 545 | 363.67 |  | 65.4 | 20 |  |  | Dose-dependent effect | 34 | -9 |  |  |  |  |  | 
16 | C[C@H](c1cccc([C@H](C)C2CC2)c1O)C1CC1 | <10 | 492.17 | 24.5 | 5.9 | 43.6 | 20 |  |  | Dose-dependent effect | 78 | -5 |  |  |  |  |  | 
17 | CC(C)c1cccc([C@H](C)C2CC2)c1O [CIPEPOFOL] | 21.86 | 313.43 | 64.8 |  |  | 4.8 |  |  | Dose-dependent effect | 85 | 34 | 28 | 2.02 | 100 | 834 | 164 | 

Row | Compound | Time [1] [s] | Time [2] [s] | Time [3] [s] | ED50 [4] [mg/kg] | LD50 at 10 s [5] [mg/kg] | Activity [6] [mg/kg] | ED50 [7] [mg/kg] | Ratio LD50/ED50 [8] | inhibition [9] | inhibition [10] [%] | inhibition [11] [%] | t1/2 [12] [min] | Vd [13] [L/kg] | clearance [14] [mL/min/kg] | Cmax [15] [ng/mL] | AUCt [16] [ng·h/mL] | LD50 [17] [mg/kg]
18 | COc1cccc(C(C)C2CC2)c1O (racemic) | <10 | 364.14 | 79 | 7.4 |  |  |  |  |  |  |  |  |  |  |  |  | 
19 | CC(C)c1cccc(C(C2CC2)C2CC2)c1O | <10 | 2616.4 | 220.17 |  | > 100 | 50 |  |  |  |  |  |  |  |  |  |  | 
20 | CC(C)c1cccc([C@@H](C)C2CC2)c1OCOP(=O)([O-])[O-].[Na+].[Na+] |  |  |  |  |  |  | 82.7 | 4.5 |  |  |  |  |  |  |  |  | 
21 | CC[C@H](C)c1cccc([C@@H](C)C2CC2)c1O | <10 | 643.4 | 224 |  |  | 10 |  |  | Dose-dependent effect | 47 | 5 |  |  |  |  |  | 
22 | C[C@@H](c1cccc([C@H](C)C2CC2)c1O)C1CC1 | <10 | 318.43 | 61.67 |  |  | 5 |  |  | Dose-dependent effect | 96 | 64 | 31 | 1.92 | 95 | 713 | 170 | 
23 | Cc1cccc(C(C)C2CC2)c1O (racemic) | <10 | 198.33 | 122 | 7.4 | 54.9 |  |  |  |  |  |  |  |  |  |  |  | 
24 | CCC(c1cccc(C(C)C)c1O)C1CC1 (racemic) | 13.6 | 523.57 | 50.38 | 6.2 | 53.2 |  |  |  |  |  |  |  |  |  |  |  | 
25 | CC(C)c1cccc([C@@H](C)C2CC2)c1O | 5.71 | 344 | 168.33 | 7.9 | 50 | 30 |  |  | Dose-dependent effect | 9 | 3 |  |  |  |  |  | 
26 | CC(C)c1cccc(C(C)C2CCC2)c1O (racemic) | 43.5 | 364 | 46 |  | 40 |  |  |  |  |  |  |  |  |  |  |  | 
27 | CC(C)c1cccc([C@H](C)C2CCC2)c1O | <10 | 443.5 | 89.11 |  |  |  |  |  |  |  |  |  |  |  |  |  | 
28 | CC[C@H](C)c1cccc([C@H](C)C2CC2)c1OCOP(=O)([O-])[O-].[Na+].[Na+] |  |  |  |  |  |  | 24.3 | 3.8 |  |  |  |  |  |  |  |  | 91.8
29 | CC(C)c1cccc([C@@H](C)C2CCC2)c1O | 15.63 | 450.43 | 191.8 |  | 107 | 100 |  |  |  |  |  |  |  |  |  |  | 
30 | CC[C@@H](C)c1cccc([C@@H](C)C2CC2)c1O | <10 | 418 | 192.33 | 1.3 | 8.3 | 4 |  |  | Dose-dependent effect | 63 | -1 |  |  |  |  |  | 
31 | CCc1cccc(C(C)C2CC2)c1O (racemic) | <10 | 409.57 | 226.57 | 7.7 | 57.1 |  |  |  |  |  |  |  |  |  |  |  | 
32 | CC[C@@H](C)c1cccc([C@H](C)C2CC2)c1OCOP(=O)([O-])[O-].[Na+].[Na+] |  |  |  |  |  |  | 15.9 | 4 |  |  |  |  |  |  |  |  | 63.7
33 | CC(c1cccc(C2CC2)c1O)C1CC1 (racemic) | <10 | 500.67 | 193.63 | 14.6 | 80 |  |  |  |  |  |  |  |  |  |  |  | 
